Reference: ChEMBL document CHEMBL3045085, “Structureactivity relationship study of growth inhibitory 2-styrylchromones against carcinoma cells” (2013)

Assays:
Format in all cases: functional
[1] = Growth inhibition of Homo sapiens (human) SKHep cells after 48 hr by MTT assay
[2] = Growth inhibition of Homo sapiens (human) H460 cells after 48 hr by MTT assay; conditions: NCI-H460, 48 h
OVCAR = assay: Growth inhibition of Homo sapiens (human) OVCAR cells after 48 hr by MTT assay
HeLa = assay: Growth inhibition of Homo sapiens (human) HeLa cells after 48 hr by MTT assay
AGS = assay: Growth inhibition of Homo sapiens (human) AGS cells after 48 hr by MTT assay
SW-620 = assay: Growth inhibition of Homo sapiens (human) SW620 cells after 48 hr by MTT assay; conditions: SW-620, 48 h
PC-3 = assay: Growth inhibition of Homo sapiens (human) PC3 cells after 48 hr by MTT assay; conditions: PC-3, 48 h

| GI50 (OVCAR) | GI50 (HeLa) | GI50 (AGS) | GI50 (SW-620) | GI50 (PC-3) | SMILES | GI50 [1] | GI50 [2] |
| --- | --- | --- | --- | --- | --- | --- | --- |
| > 40000 nM | 14000 nM | > 40000 nM |  |  | O=c1cc(/C=C/c2ccc3c(c2)OCO3)oc2ccccc12 | > 40000 nM | > 40000 nM |
| 950 nM | 330 nM | 20 nM | 30 nM | 1760 nM | COc1cccc2c1C(=O)c1c(O)c3c(c(O)c1C2=O)C[C@@](O)(C(=O)CO)C[C@@H]3O[C@H]1C[C@H](N)[C@H](O)[C@H](C)O1 [DOXORUBICIN] | 90 nM | 110 nM |
| 21000 nM | 25000 nM | > 40000 nM |  |  | O=c1cc(/C=C/c2ccccc2)oc2ccccc12 | > 40000 nM | > 40000 nM |
